From ChEMBL document CHEMBL1147155, “1,4-Dihydroindeno[1,2-c]pyrazoles with acetylenic side chains as novel and potent multitargeted receptor tyrosine kinase inhibitors with low affinity for the hERG ion channel” (J Med Chem, 2007) come the findings set out here.

Structures are written as SMILES.

Assay type in all cases: ADME, organism-based
Series [1] is described as follows: Clearance in CD1 mouse at 3 mg/kg, iv. On the set-up: dose 3 mg/kg, route intravenous. The settings on record: in vivo.
A short description of series [2]: Half life in CD1 mouse at 3 mg/kg, iv. On the set-up: dose 3 mg/kg, route intravenous. As to conditions: in vivo.
Series [3] can be described thus: AUC in CD1 mouse at 10 mg/kg, po. On the set-up: dose 10 mg/kg, route oral. The settings on record: plasma.
Series [4] is described as follows: Bioavailability in CD1 mouse at 10 mg/kg, po. The settings on record: in vivo.

In series [1], `C(#Cc1cc(-c2n[nH]c3c2Cc2cc(Cn4cncn4)ccc2-3)cs1)COc1ccccc1` showed a clearance of 41.7 mL/min/kg. For the same compound, the half-life in series [2] was 3 h.

Turning to `CN1CCN(Cc2ccc3c(c2)Cc2c(-c4csc(C#CCNC(=O)c5ccccc5)c4)n[nH]c2-3)CC1`, the AUC in series [3] is 3500 ng·h/mL. Further, the bioavailability in series [4] is 17%.

On to `CN1CCN(Cc2ccc3c(c2)Cc2c-3n[nH]c2-c2csc(C#CCNC(=O)Nc3ccccc3)c2)CC1`, for which, in series [4], the bioavailability amounted to 0%.

As for `CN1CCN(Cc2ccc3c(c2)Cc2c-3n[nH]c2-c2csc(C#CCOc3ccccc3)c2)CC1`, the bioavailability in series [4] amounted to 75%. In series [2], this compound gave a half-life of 5.5 h.

Regarding `COCCOCC#Cc1cc(-c2n[nH]c3c2Cc2cc(Cn4cncn4)ccc2-3)cs1`, the clearance in series [1] is 56.7 mL/min/kg. In series [4], the bioavailability was found to be 22%. In addition, in series [2], the half-life was 0.3 h.

The term clearance denotes the rate of elimination divided by the concentration. High values mean efficient removal, low ones inefficient removal. What is called half-life is how long it takes for the measured level to halve. One may read the AUC as concentration integrated over time. A high value points to high exposure. The bioavailability is dose-corrected exposure relative to a reference, in per cent. Read a high bioavailability as good availability.
